Experimental data from ChEMBL document CHEMBL3297655, “Beyond affinity: enthalpy-entropy factorization unravels complexity of a flat structure-activity relationship for inhibition of a tRNA-modifying enzyme” (J Med Chem, 2014).

Legend:
[1] = Inhibition of tRNA-guanine transglycosylase (unknown origin) assessed as buffer-corrected enthalpy values at 25 degC at 200 to 300 uM by isothermal titration calorimetry
[2] = Inhibition of tRNA-guanine transglycosylase (unknown origin) assessed as Gibbs free enthalpy at 25 degC at 200 to 300 uM by isothermal titration calorimetry
[3] = Inhibition of tRNA-guanine transglycosylase (unknown origin) assessed as entropy at 25 degC at 200 to 300 uM by isothermal titration calorimetry

Compound	deltaH [1] [kcal/mol]	deltaG [2] [kcal/mol]	-TdeltaS [3] [kcal/mol]
CNc1nc2cc3c(=O)[nH]cnc3cc2[nH]1	-11.4	-8.72	2.68
Nc1nc2cc3[nH]c(NCCN4CCOCC4)nc3cc2c(=O)[nH]1	-23	-10.2	12.9
CNc1nc2cc3c(=O)[nH]c(N)nc3cc2[nH]1	-23.3	-9.94	13.3
Nc1nc2cc3[nH]c(NCCN4CCCCC4)nc3cc2c(=O)[nH]1	-18.9	-10.2	8.68
O=c1[nH]cnc2cc3nc(NCCN4CCOCC4)[nH]c3cc12	-11.7	-8.77	2.92
O=c1[nH]cnc2cc3[nH]c(NCCN4CCCCC4)nc3cc12	-12.1	-8.72	3.37
Nc1nc2cc3nc(NCc4cccs4)[nH]c3cc2c(=O)[nH]1	-15.8	-9.49	6.36
O=c1[nH]cnc2cc3nc(NCc4cccs4)[nH]c3cc12	-10.1	-7.89	2.17
